For assay [1], the system named is Lyme disease. Kind of assay: Lyme Disease Case Study #2. It counts as in vivo, human. The conditions noted are these: treatments before coACT A-B, person. The text has this:
They worked as a full-time project manager for a non-profit food bank, and lives in the United States. Their symptoms first appeared in August of 2010. When […] was first diagnosed they had skin rashes that were not helped with topical treatments, low-grade fevers, severe migraines, continuous muscle aches, sore throat, stomach pain, joint pains, gynecological issues, and constant fatigue. The initial indication was hives on stomach and back which grew to circular rashes on both thighs, all directly following an insect bite from a horse fly.
From these professionals they were diagnosed not only with Lyme disease, but the following diagnoses and/or misdiagnoses: fibromyalgia, depression, arthritis, pinched nerve, burning mouth syndrome, and mycotoxic poisoning. By May 2011 they were confirmed with Lyme disease and subsequently reconfirmed by another physician in August 2011. Their case of Lyme disease was clinically diagnosed based on lab findings, Western Blot, and symptomatology. […] Tindamax was likewise not tolerated. […] Other anti-fungals caused pain and further reduced their energy levels.
[…] […] They reported climbing the lighthouse stairs in St. Augustine, Fla. without suffering a decrease in energy afterwards, which was atypical for them at that time. […] Kathy has stated that coACT provided them with “a few really good weeks which is invaluable when you haven't functioned normally for some time. For chronic long-term patients, I suspect additional dosing (like every few months or so) is necessary. For newcomers or uncomplicated cases, it could be a bridge to health and healing.

Assay [2] relates to JCV. The conditions noted are these: literature case reports; cited from earlier work.
For assay [3], the system named is chikungunya virus. The conditions noted are these: 250 mg/day; cited from earlier work.
Assay [4] deals with chikungunya disease. The conditions noted are these: cell culture and monkeys; cited from earlier work.

With `Nc1nc2c(ncn2COCCO)c(=O)[nH]1` [Acyclovir], in assay [1], the “outcome of earlier treatments in patient history” value (shortened to “outcome of earlier treatments”) was “caused their symptoms to worsen in that they could not lift their arms”.
`CCCSc1ccc2nc(NC(=O)OC)[nH]c2c1` [Albendazole]: the “outcome of earlier treatments” value in assay [1] was “seemed to help them with passing parasites”.
Still for that read-out and setting: the value for `CN1CCCN=C1/C=C/c1cccs1.O=C(O)c1cc2ccccc2c(Cc2c(O)c(C(=O)O)cc3ccccc23)c1O` [Pyrantal Pamoate] was “helped them to pass parasites in their stool, but left their lifeless, dizzy, and with nystagmus”.
On the same count and under the same terms, then `CO/N=C(\C(=O)N[C@@H]1C(=O)N2C(C(=O)O)=C(CSc3nc(=O)c(=O)[nH]n3C)CS[C@H]12)c1csc(N)n1` [Rocephin], with “helped restore their energy, but caused an allergic reaction”; and Ivermectin, with “helped them to pass parasites in their stool, but left their lifeless, dizzy, and with nystagmus”.
Turning to `C[C@@H]1[C@H](O)[C@@H](C)/C=C/C=C/CC/C=C/C=C/C=C/C=C/C(O[C@H]2O[C@H](C)[C@@H](O)[C@H](N)[C@@H]2O)CC2O[C@](O)(CC(O)C(O)CCC(O)CC(O)CC(O)CC(=O)O[C@H]1C)CC(O)C2C(=O)O` (some centres unmarked) [Nystatin], the “outcome of earlier treatments” value in assay [1] was “neither of which made any detectable difference”.
For the molecule `Nc1ccn([C@@H]2O[C@H](CO)[C@@H](O)[C@@H]2O)c(=O)n1` [Cytarabine], the “clinical outcome in PML patients” value in assay [2] is given as “stabilized the neurological condition of a minority of these patients”.
As for `OC(c1cc(C(F)(F)F)nc2c(C(F)(F)F)cccc12)C1CCCCN1` (centres unmarked) [mefloquine], the “clinical outcome in PML patients” value in assay [2] was “seemed to eliminate the virus from the patient's body and prevented further neurological deterioration”.
Consider `CCN(CC)CCCC(C)Nc1ccnc2cc(Cl)ccc12` (centres unmarked) [chloroquine phosphate], for which the “effect on arthritis-like symptoms not relieved by aspirin and NSAID” value in assay [3] is reported as “promising results”.
`CCS(=O)(=O)CCn1c([N+](=O)[O-])cnc1C` [Tindamax]: the “outcome of earlier treatments” value in assay [1] is listed as “not tolerated”.
Turning to `CCN(CC)CCCC(C)Nc1ccnc2cc(Cl)ccc12` (centres unmarked) [chloroquine], the “reduction of chikungunya disease” value in assay [4] was “no effect”.
